Literature values, collected in patent US20060182816A1, “Hypobromous acid system” (priority 2005, published 2006).
Read-outs that look alike come from different tables or passages of the source. One block for each compound: values may come before it.

Legend:
[1] = not given; remark: listed apart in the source

pKa: about 7.53
Structure (SMILES): OCl [HOCl, hypochlorous acid]

Structure (SMILES): OBr [Hypobromous acid]
% bromine as HOBr ([1]; pH 6.0): 100% | % bromine as HOBr ([1]; pH 6.5): 99.4% | % bromine as HOBr ([1]; pH 7.0): 98% | % bromine as HOBr ([1]; pH 7.5): 94% | % bromine as HOBr ([1]; pH 8.0): 83% | % bromine as HOBr ([1]; pH 8.5): 57%

Structure (SMILES): OBr [Hypobromite ion]
% bromine as OBr− ([1]; pH 6.0): 0.0% | % bromine as OBr− ([1]; pH 6.5): 0.6% | % bromine as OBr− ([1]; pH 7.0): 2% | % bromine as OBr− ([1]; pH 7.5): 6% | % bromine as OBr− ([1]; pH 8.0): 17% | % bromine as OBr− ([1]; pH 8.5): 43%
